According to patent US20230039766A1, “COMBINATION THERAPY” (TURBINE SIMULATED CELL TECHNOLOGIES LTD, priority 2019, published 2023):

Columns and labels:
BT474 cell line = assay: CellTiter-Glo cell viability assay with Bliss synergy, BT474 cells; assay type: cell-based
NCIH1975 cell line = assay: CellTiter-Glo cell viability assay with Bliss synergy, NCIH1975 cells; assay type: cell-based

O=C(c1cc(Cc2n[nH]c(=O)c3ccccc23)ccc1F)N1CCN(C(=O)C2CC2)CC1 [Olaparib]
Viability/εij (BT474 cell line; Olaparib 6.67 μM monotherapy): 0.825
Viability/εij (NCIH1975 cell line; Olaparib 6.67 μM monotherapy): 0.678

Cn1ncnc1[C@H]1c2n[nH]c(=O)c3cc(F)cc(c23)N[C@@H]1c1ccc(F)cc1 [Talazoparib]
Viability/εij (NCIH1975 cell line; Talazoparib 0.25 μM monotherapy): 0.597

O=c1[nH]c(=S)[nH]c(N=Cc2ccccc2)c1N=Cc1ccccc1 [SCR7]
Viability/εij (BT474 cell line; SCR7 60 μM monotherapy): 0.653
